Active and inactive are the calls of the source.
Columns and labels:
[1] = ZM109 Env clade C HIV-1 fusion inhibitors, dose response, HeLa effector, CEM target cells, luciferase, cherry-pick (AID 652058); assay type: functional, cell-based
Paired box protein Pax-8 = Paired box protein Pax-8 (Homo sapiens, UniProt Q06710); assay: inhibitors of PAX8-driven TPO luciferase reporter, dose response, RMG-I cells, cherry-pick (AID 687027); assay type: functional, cell-based;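 further: luciferase reporter driven by Pax8 target thyroperoxidase promoter measured by SteadyGlo luminescence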
Chain of Paired box protein Pax-8 (Q06710 whole entry): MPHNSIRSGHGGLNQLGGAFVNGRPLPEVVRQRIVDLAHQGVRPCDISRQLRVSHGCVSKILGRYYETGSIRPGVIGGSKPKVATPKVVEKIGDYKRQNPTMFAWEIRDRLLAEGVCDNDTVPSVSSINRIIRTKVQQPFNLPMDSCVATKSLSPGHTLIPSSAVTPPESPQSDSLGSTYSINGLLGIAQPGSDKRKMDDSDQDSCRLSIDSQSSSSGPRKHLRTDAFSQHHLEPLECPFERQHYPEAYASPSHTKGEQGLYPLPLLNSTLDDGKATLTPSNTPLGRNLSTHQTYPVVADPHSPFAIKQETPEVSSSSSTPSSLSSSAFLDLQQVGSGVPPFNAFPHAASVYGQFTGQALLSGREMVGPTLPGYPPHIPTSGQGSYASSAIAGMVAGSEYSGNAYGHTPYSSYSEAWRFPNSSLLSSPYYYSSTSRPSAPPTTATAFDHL

cells = assay type: functional, cell-based
Jurkat = assay: antigen receptor-induced NF-kB inhibitors, dose response, Jurkat, luciferase reporter, luminescence, B- and T-cell (AID 489004); assay type: functional, cell-based; conditions: Homo sapiens;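 further: NF-kB luciferase reporter Jurkat cells stimulated with PMA plus ionomycin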
[2] = off-target signal loss in HeLa-CEM21 co-culture – HeLa F-luc CTL cells, cherry-picked, counter-screen for HIV-1 Env fusion inhibitor project, dose response (AID 652040); assay type: functional, cell-based;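 further: potency for signal decrease marking cytotoxic or nonspecific inhibition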
[3] = inhibitors of HIV Env-driven cell fusion, dose response, cherry-pick (AID 652057); assay type: functional, cell-based
[4] = cytotoxicity in HEK-293T NF-kB-Luc cells, dose response, cytotoxicity control for B/T-cell NF-kB inhibitor project, cell-based, uHTS hits (AID 489019); assay type: functional;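 further: IC50 reflects cytotoxicity as loss of cell viability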
[5] = inhibitors of clade B AD8 Env fusion, dose response, cell-based, cherry-pick (AID 652062); assay type: functional;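 further: luciferase signal from cell-cell fusion driven by HIV-1 clade B AD8 Env; potency is for inhibitors of fusion seen as a drop in luminescence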
[6] = luciferase reporter signal reduction – luminescence, H4-C neuroglioblastoma cells, dose response (AID 2458); assay type: functional, cell-based;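 further: H4 neuroglioblastoma cells stably carrying a luciferase reporter gene fusion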
[7] = Luminescence Cell-Based Dose Response HTS to Identify Inhibitors of 5'UTR Stem-Loop Driven Prion Protein mRNA Translation in H4 Neuroglioblastoma Cells. [Related pubchem assays: 1827 (Project Summary), 1813 (Primary HTS)]; assay type: functional
[8] = Luminescence-based counterscreen assay for KLF5 inhibitors: dose response cell-based high throughput screening assay to identify cytotoxic compounds using the IEC-6 intestinal epithelial cell line. [Related pubchem assays: 1700 (Primary screen.), 1834 (Confirmation screen.), 1858 (Summary AID.), 1905 (Counterscreen.)]; assay type: functional
[9] = inhibitors of SNCA 5'UTR-driven reporter translation, confirmation, H4 neuroglioma cells, luminescence (AID 1988); assay type: functional, cell-based
[10] = inhibitors of SNCA 5'UTR-driven translation, confirmation, luminescence, H4 neuroglioblastoma cells, dose confirmation (AID 2454); assay type: functional, cell-based;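 further: H4 neuroglioblastoma cells carrying an alpha-synuclein 5'UTR luciferase reporter; potency for inhibition of the luciferase signal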
[11] = inhibitors of firefly luciferase expression or activity, dose response, H4 neuroglioma cells, luminescence (AID 1990); assay type: functional, cell-based
NS3 = NS3 (Hepatitis C virus, UniProt A3EZJ3); assay: PubChem AID 2173; set-up: species or system Hepacivirus hominis
Chain of NS3 (A3EZJ3 whole entry): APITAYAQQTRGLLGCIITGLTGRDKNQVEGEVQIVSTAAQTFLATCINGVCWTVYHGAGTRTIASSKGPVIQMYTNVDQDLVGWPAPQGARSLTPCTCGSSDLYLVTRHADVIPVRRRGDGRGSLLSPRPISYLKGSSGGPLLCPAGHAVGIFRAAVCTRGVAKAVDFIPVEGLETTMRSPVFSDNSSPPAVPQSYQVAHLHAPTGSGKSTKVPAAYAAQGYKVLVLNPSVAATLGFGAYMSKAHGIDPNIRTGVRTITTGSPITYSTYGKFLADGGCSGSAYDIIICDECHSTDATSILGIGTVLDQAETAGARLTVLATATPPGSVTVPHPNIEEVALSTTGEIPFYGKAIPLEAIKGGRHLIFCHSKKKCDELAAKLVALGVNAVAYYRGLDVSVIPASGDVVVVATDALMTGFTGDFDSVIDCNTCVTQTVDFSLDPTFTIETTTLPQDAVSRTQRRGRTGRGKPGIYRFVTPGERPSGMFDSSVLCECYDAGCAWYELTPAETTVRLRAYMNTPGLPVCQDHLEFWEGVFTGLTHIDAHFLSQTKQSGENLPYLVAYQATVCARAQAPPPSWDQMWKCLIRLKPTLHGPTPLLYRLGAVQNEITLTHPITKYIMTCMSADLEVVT

[12] = target: Acyl-homoserine lactone acylase PvdQ (Pseudomonas aeruginosa (strain LESB58), UniProt Q9I194); assay: P. aeruginosa PvdQ acylase inhibitors, dose response, biochemical, fluorescence, plate reader and imaging, cherry-picks (AID 493231)
Chain of Acyl-homoserine lactone acylase PvdQ (Q9I194 24-193 limits assumed): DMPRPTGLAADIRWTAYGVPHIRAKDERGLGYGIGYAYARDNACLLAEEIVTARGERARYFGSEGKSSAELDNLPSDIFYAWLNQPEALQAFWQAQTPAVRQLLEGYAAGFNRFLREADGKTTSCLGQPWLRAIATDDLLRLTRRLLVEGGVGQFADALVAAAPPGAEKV
Chain of Acyl-homoserine lactone acylase PvdQ (Q9I194 217-762 limits assumed): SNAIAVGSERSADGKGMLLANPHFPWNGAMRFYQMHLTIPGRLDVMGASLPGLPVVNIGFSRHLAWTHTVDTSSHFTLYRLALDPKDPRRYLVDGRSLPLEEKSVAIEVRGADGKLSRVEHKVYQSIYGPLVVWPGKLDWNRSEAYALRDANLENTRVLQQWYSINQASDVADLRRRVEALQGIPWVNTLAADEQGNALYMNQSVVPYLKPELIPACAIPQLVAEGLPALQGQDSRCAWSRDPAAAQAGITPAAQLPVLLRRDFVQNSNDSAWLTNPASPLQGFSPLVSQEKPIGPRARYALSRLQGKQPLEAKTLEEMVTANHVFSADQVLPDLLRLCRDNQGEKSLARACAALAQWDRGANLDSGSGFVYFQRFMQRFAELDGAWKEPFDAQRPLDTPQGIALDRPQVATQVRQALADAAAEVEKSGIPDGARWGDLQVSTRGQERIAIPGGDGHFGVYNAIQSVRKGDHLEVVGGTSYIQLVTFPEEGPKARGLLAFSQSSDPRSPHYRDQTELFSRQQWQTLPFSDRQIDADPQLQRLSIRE

Cytochrome P450 2C9 = Cytochrome P450 2C9 (Homo sapiens, UniProt P11712); conditions: Potency
Chain of Cytochrome P450 2C9 (P11712 whole entry): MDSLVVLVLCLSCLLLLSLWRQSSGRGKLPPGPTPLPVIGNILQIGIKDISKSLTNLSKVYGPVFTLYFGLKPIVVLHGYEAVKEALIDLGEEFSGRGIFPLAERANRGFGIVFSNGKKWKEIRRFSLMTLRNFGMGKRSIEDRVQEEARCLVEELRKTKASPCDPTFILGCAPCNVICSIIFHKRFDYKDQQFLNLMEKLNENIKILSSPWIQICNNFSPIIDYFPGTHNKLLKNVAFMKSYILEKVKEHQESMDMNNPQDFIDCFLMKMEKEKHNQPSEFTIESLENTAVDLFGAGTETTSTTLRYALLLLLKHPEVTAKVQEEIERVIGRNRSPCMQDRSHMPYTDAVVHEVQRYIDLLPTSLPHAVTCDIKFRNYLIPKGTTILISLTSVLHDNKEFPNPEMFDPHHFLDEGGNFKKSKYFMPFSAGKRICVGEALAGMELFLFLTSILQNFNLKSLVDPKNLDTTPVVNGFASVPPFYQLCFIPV

Cytochrome P450 3A4 = Cytochrome P450 3A4 (Homo sapiens, UniProt P08684); conditions: Potency;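 further: confirmatory qHTS run detecting inhibitors and substrates of CYP3A4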
Chain of Cytochrome P450 3A4 (P08684 whole entry): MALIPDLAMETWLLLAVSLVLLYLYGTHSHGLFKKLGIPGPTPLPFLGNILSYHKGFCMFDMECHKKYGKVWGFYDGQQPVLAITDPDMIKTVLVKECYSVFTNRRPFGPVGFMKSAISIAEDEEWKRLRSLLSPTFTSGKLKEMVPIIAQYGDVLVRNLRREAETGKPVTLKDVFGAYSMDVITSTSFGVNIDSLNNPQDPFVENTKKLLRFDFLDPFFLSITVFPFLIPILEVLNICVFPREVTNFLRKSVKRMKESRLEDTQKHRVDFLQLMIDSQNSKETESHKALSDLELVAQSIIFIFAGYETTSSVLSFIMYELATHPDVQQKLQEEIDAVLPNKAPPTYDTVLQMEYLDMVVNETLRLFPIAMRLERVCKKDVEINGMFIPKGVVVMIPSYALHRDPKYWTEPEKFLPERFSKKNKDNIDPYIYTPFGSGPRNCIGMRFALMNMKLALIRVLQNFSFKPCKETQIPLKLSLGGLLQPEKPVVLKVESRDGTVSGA

[13] = cytotoxicity in HEK-293T cells, dose response, cytotoxicity control for BCR NF-kB inhibitor project, luminescence, B-cell screen hits (AID 489021); assay type: functional, cell-based;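 further: HEK-293T cells carrying an NF-kB luciferase reporter; cells exposed to compound for about 14 hours before viability readout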
[14] = target: T1, Sentrin-specific protease 1 (Homo sapiens, UniProt Q9P0U3); assay: potency of human SENP1 inhibitors, dose response, biochemical, kinetic FRET (AID 651697); assay type: functional; conditions: read-out: IC50_Mean
T1 sequence (Q9P0U3 whole entry): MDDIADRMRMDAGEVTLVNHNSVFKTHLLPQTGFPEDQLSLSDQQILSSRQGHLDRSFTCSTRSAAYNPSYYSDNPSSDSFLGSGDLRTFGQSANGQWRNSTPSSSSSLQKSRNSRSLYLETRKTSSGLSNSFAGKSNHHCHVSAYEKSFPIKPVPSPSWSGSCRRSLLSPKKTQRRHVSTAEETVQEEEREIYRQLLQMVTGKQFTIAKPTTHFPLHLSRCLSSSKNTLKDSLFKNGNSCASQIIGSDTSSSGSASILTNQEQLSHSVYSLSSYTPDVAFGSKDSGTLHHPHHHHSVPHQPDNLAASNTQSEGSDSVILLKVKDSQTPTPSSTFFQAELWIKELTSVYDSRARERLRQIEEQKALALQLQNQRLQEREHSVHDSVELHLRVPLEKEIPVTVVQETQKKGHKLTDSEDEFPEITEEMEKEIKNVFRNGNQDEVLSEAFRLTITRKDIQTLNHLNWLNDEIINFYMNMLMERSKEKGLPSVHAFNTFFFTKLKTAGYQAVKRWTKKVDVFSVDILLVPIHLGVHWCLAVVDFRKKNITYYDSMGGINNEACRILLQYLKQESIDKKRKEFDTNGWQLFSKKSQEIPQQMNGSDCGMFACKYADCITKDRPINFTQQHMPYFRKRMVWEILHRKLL

[15] = target: T1, Sentrin-specific protease 1; assay: Dose response confirmation of small molecule inhibitors of the catalytic domain of the SUMO protease, SENP1 in a FRET assay.; assay type: functional; conditions: read-out: IC50_Mean
Streptococcus [16] = assay: Group A Streptococcus viability loss, dose response, counter-screen for streptokinase expression inhibitor project, luminescence, BacTiterGlo (AID 1915); assay type: functional, organism-based;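 further: potency for reduction of bacterial viability or growth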
Streptococcus [17] = assay: Luminescence Microorganism-Based Dose Response Follow up to Identify Compounds Cytotoxic to Streptococcus. [Related pubchem assays: 1677 (Project Summary), 1915, 1914, 1902 (Retest at Dose), 1900 (Counter Screen), 1662 (Primary HTS)]; assay type: functional, organism-based
[18] = tested on: Streptococcus sp. 'group A'; assay: growth inhibition of control SK(-) GAS strain, dose response, counter-screen for streptokinase expression inhibitor project, luminescence, kanamycin, BacTiterGlo, confirmation (AID 1900); assay type: functional, organism-based
Streptokinase A = target: T2, Streptokinase A (Streptococcus pyogenes serotype M1, UniProt P10520); assay: S. pyogenes streptokinase expression inhibitors, potency, dose response, plasminogen activation absorbance, OD405 (AID 1914); assay type: functional, Streptococcus pyogenes M1 GAS;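 further: secreted streptokinase activity via plasminogen activation per viability signal from cell pellet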
T2 sequence (P10520 whole entry): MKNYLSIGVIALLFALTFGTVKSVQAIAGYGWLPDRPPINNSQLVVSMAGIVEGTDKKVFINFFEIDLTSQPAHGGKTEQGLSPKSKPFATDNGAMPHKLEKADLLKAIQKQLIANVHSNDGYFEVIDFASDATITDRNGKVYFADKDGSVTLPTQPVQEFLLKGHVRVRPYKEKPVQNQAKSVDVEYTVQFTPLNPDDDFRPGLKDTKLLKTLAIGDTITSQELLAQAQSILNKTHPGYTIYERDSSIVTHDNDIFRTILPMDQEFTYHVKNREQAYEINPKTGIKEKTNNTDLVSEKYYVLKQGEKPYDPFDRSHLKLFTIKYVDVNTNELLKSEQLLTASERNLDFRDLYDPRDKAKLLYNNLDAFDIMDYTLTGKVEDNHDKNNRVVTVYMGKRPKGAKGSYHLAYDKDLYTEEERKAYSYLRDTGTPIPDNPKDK

[19] = target: Neurotensin receptor type 1 (Homo sapiens, UniProt P30989); assay type: functional;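 further: Image-based confirmatory dose-response assay measuring agonist activity at NTR1; NTR1-expressing U2OS osteosarcoma cells imaged for beta-arrestin GFP spot formation; agonist potency where compounds increase beta-arrestin recruitment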
Chain of Neurotensin receptor type 1 (P30989 whole entry): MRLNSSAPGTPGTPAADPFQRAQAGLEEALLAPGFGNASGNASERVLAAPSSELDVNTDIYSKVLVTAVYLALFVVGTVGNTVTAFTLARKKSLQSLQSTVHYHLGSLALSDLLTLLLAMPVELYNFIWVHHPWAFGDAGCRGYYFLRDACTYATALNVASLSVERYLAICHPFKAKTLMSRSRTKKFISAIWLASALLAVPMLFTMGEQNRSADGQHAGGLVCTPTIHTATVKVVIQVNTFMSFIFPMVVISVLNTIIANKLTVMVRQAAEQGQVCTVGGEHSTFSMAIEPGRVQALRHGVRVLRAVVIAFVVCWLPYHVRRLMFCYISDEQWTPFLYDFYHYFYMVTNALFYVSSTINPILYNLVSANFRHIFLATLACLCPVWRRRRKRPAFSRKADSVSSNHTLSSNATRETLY

SMILES: O=C(NCCc1ccccc1F)c1ccc2c(c1)OCCO2
- AC50 [1]: 8.11 µM (active)
- AC50 (Paired box protein Pax-8): 2.18 µM (active)
- EC50 (cells): 0.316 µM (active)
- IC50 (Jurkat): 0.77 µM (active)
- AC50 [2]: 3.21 µM (active)
- AC50 [3]: 2.14 µM (active)
- IC50 [4]: > 80 µM (inactive)
- AC50 [5]: 1.25 µM (active)
- EC50 [6]: 0.258 µM (active)
- EC50 [7]: < 0.1 µM (active)
- IC50 [8]: > 39.8 µM (not active)
- EC50 [9]: 0.113 µM (active)
- EC50 [10]: 0.151 µM (active)
- EC50 [11]: 0.16 µM (active)

SMILES: Cc1cc(Cl)ccc1Oc1ccccc1C(=O)CC#N
- IC50 (NS3): 3.54 µM (active)

SMILES: O=C(CSCc1ccco1)N1CCc2ccccc21
- AC50 [12]: 1.9 µM (active)

SMILES: O=c1c(O)c(-c2ccc(O)cc2)oc2ccc(O)cc12
- AC50 (Cytochrome P450 2C9): 10 µM (inconclusive)
- AC50 (Cytochrome P450 3A4): 12.6 µM (inconclusive)

SMILES: CCSc1ncc(Cl)c(C(=O)Nc2sc3c(c2C(=O)NCc2cccnc2)CCCC3)n1
- IC50 [13]: > 80 µM (inactive)
- IC50 [14]: 19.1 µM (active)
- IC50 [15]: 5.97 µM (active)

SMILES: COc1ccc(-c2csc3ncnc(N4CCN(c5ccccc5Cl)CC4)c23)cc1
- EC50 (Streptococcus [16]): > 150 µM (not active)
- EC50 (Streptococcus [17]): > 500 µM (not active)
- EC50 [18]: 82.6 µM (active)
- EC50 (Streptokinase A): 3.7 µM (active)

SMILES: O=C(COC(=O)/C=C/C(=O)OCC(=O)NC12CC3CC(CC(C3)C1)C2)NC12CC3CC(CC(C3)C1)C2
- EC50 [19]: > 40 µM (inactive)

— ChEMBL document CHEMBL1201862, “PubChem BioAssay data set” (2004)
